Tests used:
Assay type in all cases: biochemical
[1] = target: chemically modified enzyme (Thermus aquaticus, UniProt P19821); test: Additionally tested compounds, enhancement of enzyme activity of a chemically modified enzyme; settings: conditions not stated
[2] = target: T1, unmodified Taq DNA Polymerase (QIAGEN) (Thermus aquaticus, UniProt P19821); test: SYBR Green I real-time PCR, Example 1 (control enzyme)
T1 construct: purchased QIAGEN
Excerpt: (§1) In real-time PCR, the enzymatic reaction is continuously monitored by measuring fluorescence signals throughout the reaction. Double-stranded DNA molecules are generated during the PCR reaction. These PCR products are detected by using SYBR Green I fluorescent dye that binds selectively to dsDNA only. Thus, an increase of fluorescence indicates an increase in PCR product amount and thus activity of the DNA polymerase contained in the reaction. […] Thus, the CT value is a measurement for the enzyme activity contained in the reaction: Low CT values indicate high enzyme activity and high CT values represent lower enzyme activity residing in the reaction.
A SYBR Green I based PCR reaction was conducted in the presence of unmodified Taq DNA Polymerase (QIAGEN) serving as a control reaction, using HotStarTaq DNA polymerase (QIAGEN) or AmpliTaq Gold (Applied Biosystems). Each reaction contained 0.625 units of the respective DNA polymerase, 1× PCR reaction buffer of the respective DNA polymerase, 200 μM of each dNTP, 0.5 μM primer A: 5′-[…]-3′ (SEQ ID NO:1), 0.5 μM primer B: 5′-[…]-3′ (SEQ ID NO:2), PCR grade water and in case of testing nitrogen-containing compounds as example 100 mM Triazole, final concentration. […] Average CT values were determined from triplicate reactions comparing reactions without the addition of Triazole and with 100 mM Triazole.

[3] = target: T2, AmpliTaq Gold (Applied Biosystems) (Thermus aquaticus, UniProt P19821); test: SYBR Green I real-time PCR, Example 1, reactivation of chemically modified enzyme
T2 construct: purchased Applied Biosystems
Excerpt: (§2) As model system to exemplify the invention, hot start PCR was chosen with two commercially available enzymes. […] AmpliTaq Gold (Applied Biosystems) is chemically inactivated using dicarboxylic acid anhydride whereas HotStarTaq (QIAGEN) is chemically inactivated using formaldehyde.
as §1
(§3) A SYBR Green I based PCR reaction was conducted in the presence of unmodified Taq DNA Polymerase (QIAGEN) serving as a control reaction, using HotStarTaq DNA polymerase (QIAGEN) or AmpliTaq Gold (Applied Biosystems). Each reaction contained 0.625 units of the respective DNA polymerase, 1× PCR reaction buffer of the respective DNA polymerase, 200 μM of each dNTP, 0.5 μM primer A: 5′-[…]-3′ (SEQ ID NO:1), 0.5 μM primer B: 5′-[…]-3′ (SEQ ID NO:2), PCR grade water and in case of testing nitrogen-containing compounds as example 100 mM Triazole, final concentration. Each reaction contained 10 ng human genomic DNA as amplification substrate. PCR reactions were started with an initial enzyme activation step at 95° C. for 5 minutes followed by 50 cycles: 94° C. for 15 seconds and 60° C. for 60 seconds. Average CT values were determined from triplicate reactions comparing reactions without the addition of Triazole and with 100 mM Triazole.

[4] = target: T3, HotStarTaq DNA polymerase (QIAGEN) (Thermus aquaticus, UniProt P19821); test: as above
T3 construct: purchased QIAGEN
Excerpt: as §2, §1, §3

[5] = target: T4, HotStarTaq DNA Polymerase (Thermus aquaticus, UniProt P19821); test: Fast PCR with 20 mM ammonium chloride and Triazole, agarose gel, Example 5
T4 construct: purchased QIAGEN
Method: System C shown in Example 4 was chosen as model system. Each PCR reaction contained 1.5 units HotStarTaq DNA Polymerase, 10 ng template human genomic DNA, 200 μM of each dNTP, 0.5 μM of each primer A: 5′-CCTTGCCTTAGATGTGTCGGCA-3′ (SEQ ID NO:11), primer B: 5′-CCCAAACCCAACCCATACACAC -3′ (SEQ ID NO:12), and PCR grade water. PCR reactions were started with an initial enzyme activation step at 95° C. for 5 minutes followed by 35 cycles: 96° C. for 5 seconds, 60° C. for 5 seconds and 68° C. for 45 seconds. PCR products from duplicate reactions were analysed on a 1% TAE agarose gel. M: DNA size ladder.

[6] = target: T4, HotStarTaq DNA Polymerase; test: Fast PCR with shortened cycling times, agarose gel, Example 2; settings: 100, 200, 300, 400 and 500 mM Triazole vs absence of Triazole; FIG. 1
Method: Each PCR reaction contained 1.5 units HotStarTaq DNA Polymerase, 10 ng template human genomic DNA, 200 μM of each dNTP, 0.5 μM primer A: 5′-CACACAGCGATGGCAGCTATGC-3′ (SEQ ID NO:3), 0.5 […] primer B: 5′-CCC AGT GAT GGG CCA GCT C-3′ (SEQ ID NO:4), PCR grade water and in case of testing nitrogen-containing compounds as example 100 mM, 200 mM, 300 mM, 400 mM and 500 mM Triazole, final concentration. PCR reactions were started with an initial enzyme activation step at 95° C. for 5 minutes followed by 35 cycles: 96° C. for 5 seconds, 60° C. for 5 seconds and 68° C. for 30 seconds. PCR products were analysed on a 1% TAE agarose gel (FIG. 1).

[7] = target: T4, HotStarTaq DNA Polymerase; test: Fast PCR with ammonium chloride, agarose gel, Example 4; settings: 10, 20 and 30 mM ammonium chloride vs 0 mM; PCR assays A, B, C; FIG. 3
Method: Each PCR reaction contained 1.5 units HotStarTaq DNA Polymerase, 10 ng template human or mouse genomic DNA, 200 μM of each dNTP, 0.5 μM of each primer for each different PCR assay (Assay A, primer A1: 5′-GCTTGAGCAACCTGGCTAAGATAGAGG-3′ (SEQ ID NO:7), primer A2: 5′-GAGTTAGCAGGAGGCTGGATGCAGATG-3′ (SEQ ID NO:8); Assay B, primer B1: 5′-CCACAATGGACATCACACAAGTGAG-3′ (SEQ ID NO:9), primer B2: 5′-GATCTTTCTGCCCAGATACCATTCG-3′ (SEQ ID NO:10); Assay C, primer C1: 5′-CCTTGCCTTAGATGTGTCGGCA-3′ (SEQ ID NO:11), primer C2: 5′-CCCAAACCCAACCCATACACAC-3′ (SEQ ID NO:12)) and PCR grade water. PCR reactions were started with an initial enzyme activation step at 95° C. for 5 minutes followed by 35 cycles: 96° C. for 5 seconds, 60° C. for 5 seconds and 68° C. for 30 seconds/kb PCR product size. PCR products were analysed on a 1% TAE agarose gel. M: DNA size ladder (FIG. 3).

T4 sequence (P19821 whole entry): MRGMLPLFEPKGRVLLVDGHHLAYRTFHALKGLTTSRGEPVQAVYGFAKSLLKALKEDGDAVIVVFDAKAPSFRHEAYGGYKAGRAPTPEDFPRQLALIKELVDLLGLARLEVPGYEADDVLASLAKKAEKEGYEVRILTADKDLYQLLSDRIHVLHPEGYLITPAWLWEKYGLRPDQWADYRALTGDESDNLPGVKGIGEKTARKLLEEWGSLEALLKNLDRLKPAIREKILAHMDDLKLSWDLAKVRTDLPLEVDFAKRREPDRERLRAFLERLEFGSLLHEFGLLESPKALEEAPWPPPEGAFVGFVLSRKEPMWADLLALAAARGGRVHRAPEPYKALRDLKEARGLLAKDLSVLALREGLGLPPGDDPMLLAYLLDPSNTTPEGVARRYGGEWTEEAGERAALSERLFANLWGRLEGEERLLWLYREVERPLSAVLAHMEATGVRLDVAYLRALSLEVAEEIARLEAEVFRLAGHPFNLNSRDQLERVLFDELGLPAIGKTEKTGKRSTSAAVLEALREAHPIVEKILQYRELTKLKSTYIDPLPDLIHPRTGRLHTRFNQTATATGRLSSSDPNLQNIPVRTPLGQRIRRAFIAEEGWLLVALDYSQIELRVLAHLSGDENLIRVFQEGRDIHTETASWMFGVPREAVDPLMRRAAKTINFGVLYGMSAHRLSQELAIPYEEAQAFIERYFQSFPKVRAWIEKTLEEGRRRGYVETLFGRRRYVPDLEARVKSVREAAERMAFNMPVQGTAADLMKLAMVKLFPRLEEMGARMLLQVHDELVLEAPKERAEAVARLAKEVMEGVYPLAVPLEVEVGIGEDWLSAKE
Sequence of chemically modified enzyme (P19821 whole entry): as above
T3 sequence (P19821 whole entry): as above
T2 sequence (P19821 whole entry): as above
T1 sequence (P19821 whole entry): as above

## N.O=C(O)c1ccccc1 [ammonium benzoate]
[1]
  improvement of enzyme activity: no improvement

## N.N.O=P(O)(O)O [di-ammonium hydrogen phosphate]
[1]
  improvement of enzyme activity: no improvement

## N.N.O=C(O)O [ammonium carbonate]
[1]
  improvement of enzyme activity: no improvement

## Triazole
[2]; 100 mM Triazole, unmodified Taq DNA polymerase
  effect on the enzyme activity: no effect
[2]; Taq (unmodified), activation 95° C. for 5 minutes, triplicate reactions, low CT = high enzyme activity
  Average CT value with 100 mM Triazole: 21.3
[3]; 100 mM Triazole
  effect on the enzyme activity: clearly higher enzyme activity
[3]; activation 95° C. for 5 minutes, triplicate reactions, low CT = high enzyme activity
  Average CT value with 100 mM Triazole: 25.6
[4]; 100 mM Triazole, HotStarTaq DNA Polymerase
  effect on the enzyme activity: clearly higher enzyme activity
[4]; HotStarTaq, activation 95° C. for 5 minutes, triplicate reactions, low CT = high enzyme activity
  Average CT value with 100 mM Triazole: 35.9
[5]; 500 mM Triazole in the presence of 20 mM ammonium chloride
  enzyme activity of the chemically modified enzyme: still higher than in the reaction without Triazole
[5]; Triazole 100-500 mM in the presence of 20 mM ammonium chloride vs no Triazole, FIG. 4
  enzyme activity of the chemically modified enzyme: clear benefit for the enzyme activity
[6]
  enzyme activity / generation of the desired PCR product under fast cycling: significantly improves enzyme activity

## N.N.O=S(=O)(O)O [ammonium sulfate]
[1]
  improvement of enzyme activity: no improvement

## ammonium citrate
[1]
  improvement of enzyme activity: no improvement

## Cl.N [ammonium chloride]
[7]
  overall enzyme activity of the chemically inactivated enzyme: increase of overall enzyme activity

From patent US20130217092A1, “Enhancing Reactivation of Thermostable Reversibly Inactivated Enzymes” (Qiagen GmbH, priority 2006, published 2013)
